How the values were obtained:
[1] = test system: NPR-6; experiment: cAMP reporter gene assay, Gi/o (inhibition of forskolin-induced cAMP), NPR-6; format: cell-based, C. elegans; details: 1 µM forskolin set to 1.00, transiently transfected HEK293 cells, mean of at least three independent experiments
Procedure: (§1) Activation of Gs and Gi/o was assessed with a cAMP reporter gene assay. HEK293 cells grown to 70–80% confluency in 6-well plates were transiently co-transfected with vectors encoding the receptor and the cAMP reporter gene plasmid pGL4.29 [luc2P/CRE/Hygro] (Promega; 4 μg total, 1:1 ratio) using Metafectene Pro (3 μl/μg DNA; Biontex) following the manufacturer’s instructions. 16 h post transfection, the cells were seeded into white 384-well plates at a density of 20,000 cells/well. On the next day, the medium was removed and the cells were stimulated with 20 μl of peptide solution (or forskolin as positive control) in serum-free DMEM for 4 h. For measuring Gi/o activity, the peptide solutions additionally contained 1 μM forskolin to elevate cellular cAMP levels. After incubation, the luciferase substrate OneGlo in lysis buffer (Promega) was added and the luminescence was measured in a microplate reader Tecan Spark (Tecan). Data were analyzed with GraphPad Prism 5.03 and are shown as fold of basal or fold of forskolin in case of Gαi/o activity.
(§2) For in vitro activation, data is presented as mean ± SEM of at least three independent experiments conducted in technical triplicate. […] For the C. elegans NPRs, we considered the strongest response elicited by any of the peptides downstream of a particular receptor as the receptor’s maximal signal. This may or may not be the biological maximum that can be reached by the ‘true’ endogenous agonist. For the human receptors, the response to the established endogenous agonist reflected the maximal signal.

[2] = biological target: T1, NPR-5b (Caenorhabditis elegans, UniProt Q6F3C9); experiment: cAMP reporter gene assay, Gi/o (with forskolin), NPR-5b; format: cell-based, C. elegans; details: 1 µM forskolin set to 1.00, values > 1 = cAMP stimulation, transiently transfected HEK293 cells, mean of at least three independent experiments
T1 sequence (Q6F3C9 1-433): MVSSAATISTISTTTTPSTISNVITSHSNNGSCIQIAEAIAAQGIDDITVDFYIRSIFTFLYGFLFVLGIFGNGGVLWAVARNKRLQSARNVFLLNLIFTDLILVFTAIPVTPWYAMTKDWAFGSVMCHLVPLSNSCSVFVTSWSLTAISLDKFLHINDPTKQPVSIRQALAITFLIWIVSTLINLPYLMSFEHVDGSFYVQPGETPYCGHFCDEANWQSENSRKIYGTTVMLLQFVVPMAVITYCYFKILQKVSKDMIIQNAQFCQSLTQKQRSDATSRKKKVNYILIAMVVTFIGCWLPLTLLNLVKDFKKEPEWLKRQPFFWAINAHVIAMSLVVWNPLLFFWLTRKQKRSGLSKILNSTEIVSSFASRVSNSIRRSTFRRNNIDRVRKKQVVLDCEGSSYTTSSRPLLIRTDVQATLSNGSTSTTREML
Procedure: as §1, with “(Tecan).” for “(Tecan). Data were analyzed with GraphPad Prism 5.03 and are shown as fold of basal or fold of forskolin in case of Gαi/o activity.”
as §2

[3] = biological target: T2, Y2R (Homo sapiens, UniProt P49146); experiment: IP accumulation assay, chimeric GαΔ6qi4myr, Y2R; format: cell-based; details: chimeric GαΔ6qi4myr co-transfected, transiently transfected HEK293 cells, mean of at least three independent experiments
T2 construct: expressed in transfected cells; host or cells: HEK293, transient
T2 sequence (P49146 1-381): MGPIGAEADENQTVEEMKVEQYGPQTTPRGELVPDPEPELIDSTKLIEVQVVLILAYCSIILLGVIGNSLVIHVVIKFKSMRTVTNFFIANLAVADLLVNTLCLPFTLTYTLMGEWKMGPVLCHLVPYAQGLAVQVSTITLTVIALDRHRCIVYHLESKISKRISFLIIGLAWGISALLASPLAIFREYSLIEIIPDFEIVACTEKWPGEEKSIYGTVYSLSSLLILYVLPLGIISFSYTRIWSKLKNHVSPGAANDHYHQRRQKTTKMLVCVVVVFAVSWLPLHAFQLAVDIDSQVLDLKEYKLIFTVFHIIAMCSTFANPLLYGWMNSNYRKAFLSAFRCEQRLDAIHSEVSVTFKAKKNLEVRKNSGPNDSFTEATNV
Procedure: For measuring IP accumulation, HEK293 cells grown to 70–80% confluency in 6-well plates were transiently co-transfected using Metafectene Pro (2.5 μl/μg DNA; Biontex) with plasmids containing receptor and/or mock (empty pcDNA3.1) (for endogenous Gq-coupling) using 4 μg total DNA in a ratio of 3:1 following the manufacturer’s instructions. For testing Gα16- and GαΔ6qi4myr-coupling, plasmids encoding the corresponding Gα protein were co-transfected instead of mock. Gα16 is naturally promiscuous and stimulates the phospholipase C (PLC) pathway leading to IP production, while the exchange of the C-terminal four amino acids of Gαq for the corresponding residues of Gαi1 in the chimeric GαΔ6qi4myr confers the ability to couple to Gi/o protein-preferring receptors but still stimulate PLC, thus specifically redirecting downstream cellular signaling. 16 h post transfection, the cells were seeded into white 384-well plates at a density of 20,000 cells/well. Media was removed 24 h later and the cells were incubated with the indicated concentration of peptides for 1 h in HBSS + 20 mM LiCl. IP accumulation was measured with the HTRF-based IP-One Gq kit (Cisbio) on a microplate reader (Tecan Spark).
as §2

Row | cAMP, x-fold of forskolin (mean), NPR-5b ([2]; 0.1 µM peptide) | cAMP, x-fold of forskolin (mean), NPR-5b ([2]; 10 µM peptide) | IP accumulation, x-fold of basal (mean), Y2R ([3]; 0.1 µM peptide) | IP accumulation, x-fold of basal (mean), Y2R ([3]; 10 µM peptide) | Substance | cAMP, x-fold of forskolin (mean), NPR-6 ([1]; 0.1 µM peptide) | cAMP, x-fold of forskolin (mean), NPR-6 ([1]; 10 µM peptide)
1 | 0.90 x-fold of forskolin | 1.82 x-fold of forskolin | 0.76 x-fold of basal | 2.05 x-fold of basal | ASPSFIRF-NH2 [FLP-4-2, C. elegans FMRFamide-like peptide, C-terminally amidated, synthesized by SPPS] | 0.86 x-fold of forskolin | 0.72 x-fold of forskolin
2 | 0.86 x-fold of forskolin | 0.96 x-fold of forskolin | 3.40 x-fold of basal | 12.24 x-fold of basal | APLEPVYPGDNATPEQMAQYAADLRRYINMLTRPRY-NH2 [PP, human pancreatic polypeptide, reference compound] | 1.01 x-fold of forskolin | 1.00 x-fold of forskolin
3 | 1.10 x-fold of forskolin | 3.95 x-fold of forskolin | 1.01 x-fold of basal | 0.70 x-fold of basal | NPENDTPFGTMRF-NH2 [FLP-3-4, C. elegans FMRFamide-like peptide, C-terminally amidated, synthesized by SPPS] | 0.85 x-fold of forskolin | 0.26 x-fold of forskolin

From PMC6751662, “Pharmacological and functional similarities of the human neuropeptide Y system in C. elegans challenges phylogenetic views on the FLP/NPR system” (Cell Communication and Signaling : CCS, 2019)
